Measured values as given in publication PMC8645336, “Benchmarking a highly selective USP30 inhibitor for enhancement of mitophagy and pexophagy” (Life Science Alliance, 2021).

Experiments:
USP19 = target: T1, USP19 (Homo sapiens, UniProt O94966); assay: biochemical; parameters: Ubiquigent DUB profiler selectivity panel, remaining enzyme activity as % of control; conditions: read-out: % of control remaining
T1 sequence (O94966 1-1318): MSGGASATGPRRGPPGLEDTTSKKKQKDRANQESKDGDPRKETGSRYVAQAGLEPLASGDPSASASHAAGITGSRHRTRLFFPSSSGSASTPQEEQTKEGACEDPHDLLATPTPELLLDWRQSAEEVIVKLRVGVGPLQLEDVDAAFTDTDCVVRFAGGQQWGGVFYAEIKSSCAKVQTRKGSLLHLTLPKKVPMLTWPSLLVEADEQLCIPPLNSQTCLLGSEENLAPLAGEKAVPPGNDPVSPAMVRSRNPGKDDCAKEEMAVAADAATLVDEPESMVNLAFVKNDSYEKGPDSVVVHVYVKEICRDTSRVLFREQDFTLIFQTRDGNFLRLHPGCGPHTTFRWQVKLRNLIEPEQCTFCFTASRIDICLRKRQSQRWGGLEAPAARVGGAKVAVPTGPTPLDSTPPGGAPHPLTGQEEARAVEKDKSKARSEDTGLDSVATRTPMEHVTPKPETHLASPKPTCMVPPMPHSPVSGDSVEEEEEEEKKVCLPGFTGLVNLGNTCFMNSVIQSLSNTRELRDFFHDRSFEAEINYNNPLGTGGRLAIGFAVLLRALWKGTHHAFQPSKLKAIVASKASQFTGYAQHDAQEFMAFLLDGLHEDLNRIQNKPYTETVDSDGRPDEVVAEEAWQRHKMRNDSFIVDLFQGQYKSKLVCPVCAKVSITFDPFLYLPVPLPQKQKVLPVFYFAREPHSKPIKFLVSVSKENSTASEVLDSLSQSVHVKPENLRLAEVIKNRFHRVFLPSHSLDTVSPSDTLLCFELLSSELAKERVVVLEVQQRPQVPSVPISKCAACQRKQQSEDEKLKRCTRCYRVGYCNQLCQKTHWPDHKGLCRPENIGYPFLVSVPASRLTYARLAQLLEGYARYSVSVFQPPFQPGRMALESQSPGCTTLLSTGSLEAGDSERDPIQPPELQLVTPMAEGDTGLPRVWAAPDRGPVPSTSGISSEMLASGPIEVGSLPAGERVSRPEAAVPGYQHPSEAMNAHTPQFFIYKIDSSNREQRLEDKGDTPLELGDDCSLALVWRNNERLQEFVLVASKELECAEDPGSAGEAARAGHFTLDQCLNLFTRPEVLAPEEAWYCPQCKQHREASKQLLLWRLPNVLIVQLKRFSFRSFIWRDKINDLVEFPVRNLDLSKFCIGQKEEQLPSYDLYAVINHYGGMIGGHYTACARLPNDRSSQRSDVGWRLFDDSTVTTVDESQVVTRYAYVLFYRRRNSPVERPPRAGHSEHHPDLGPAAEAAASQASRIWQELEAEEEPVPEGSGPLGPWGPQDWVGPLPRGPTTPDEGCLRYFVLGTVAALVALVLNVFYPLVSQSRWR
In short: (§1)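 In YFP-PRKN-overexpressing hTERT-RPE1 cells, 1 h antimycin A plus oligomycin A (1 μM each) with CMPD-39, then Western blot of TOMM20 ubiquitylation. Target engagement: 2 h compound, then 10 min HA-Ub-PA at 37°C, read as USP30 shift. DUB panel (>40 enzymes) screened at 1-100 μM.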

USP45 = target: T2, USP45 (Homo sapiens, UniProt Q70EL2); assay: biochemical; parameters: Ubiquigent DUB profiler selectivity panel, remaining enzyme activity as % of control; conditions: read-out: % of control remaining
T2 sequence (Q70EL2 1-814): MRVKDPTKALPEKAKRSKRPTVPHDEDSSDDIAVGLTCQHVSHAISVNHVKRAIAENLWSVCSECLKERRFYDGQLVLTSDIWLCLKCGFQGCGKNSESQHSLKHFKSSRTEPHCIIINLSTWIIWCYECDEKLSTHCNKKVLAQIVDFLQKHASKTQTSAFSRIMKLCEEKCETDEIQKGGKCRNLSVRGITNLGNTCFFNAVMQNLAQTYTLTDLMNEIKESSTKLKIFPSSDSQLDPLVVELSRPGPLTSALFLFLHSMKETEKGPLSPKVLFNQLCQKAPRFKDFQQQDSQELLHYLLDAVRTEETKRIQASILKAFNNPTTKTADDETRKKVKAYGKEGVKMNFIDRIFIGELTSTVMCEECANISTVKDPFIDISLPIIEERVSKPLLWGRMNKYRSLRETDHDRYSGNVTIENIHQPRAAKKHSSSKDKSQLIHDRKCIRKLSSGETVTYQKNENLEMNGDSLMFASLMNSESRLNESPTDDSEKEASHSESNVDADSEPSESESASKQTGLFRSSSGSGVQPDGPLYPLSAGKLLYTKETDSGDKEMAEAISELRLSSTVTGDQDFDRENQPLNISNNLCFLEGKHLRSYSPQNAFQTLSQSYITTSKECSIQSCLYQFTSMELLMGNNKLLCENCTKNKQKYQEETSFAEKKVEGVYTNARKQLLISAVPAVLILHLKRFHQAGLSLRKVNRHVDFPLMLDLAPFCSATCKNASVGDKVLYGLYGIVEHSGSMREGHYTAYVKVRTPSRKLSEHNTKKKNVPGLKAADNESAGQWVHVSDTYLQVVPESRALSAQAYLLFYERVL
In short: as §1

Question: With CC(C)(C)NS(=O)(=O)c1ccc(NC(=O)[C@H](Cc2ccccc2)NC(=O)c2ccc(F)cc2)cc1 [compound 39, CMPD-39] as the compound, how does the remaining activity at 1 µM (USP19) read?
Answer: 107%

Question: What about the remaining activity at 10 µM (USP19) of the same compound?
Answer: 99.7%

Question: And the remaining activity at 100 µM (USP19)?
Answer: 99.8%

Question: And the remaining activity at 1 µM (USP45)?
Answer: 98.8%

Question: What about the remaining activity at 10 µM (USP45) of the same compound?
Answer: 95%

Question: And the remaining activity at 100 µM (USP45)?
Answer: 100%
